Results as given in patent US20150010928A1, “MEANS AND METHODS FOR ASSESSING AN ENDOCRINE DISEASE OR DISORDER” (priority 2012, published 2015).
Counter-ions that a name gives are not always drawn. Marks after values point to notes of the source that are not given here.

Experiments:
[1] = system: female rats; experiment: Plasma metabolite profiling (GC-MS, LC-MS, SPE-LC-MS) in female rats dosed once daily over 28 days (OECD 407); assay type: in vivo, rat
Procedure: Each dose group in the studies consisted of five rats per sex. Additional groups of each 5 male and female animals served as controls. […] All animals of the animal population were kept under the same constant temperature (20-24±3° C.) and the same constant humidity (30-70%). The animals of the animal population were fed ad libitum. The food to be used was essentially free of chemical or microbial contaminants. Drinking water was also offered ad libitum. Accordingly, the water was free of chemical and microbial contaminants as laid down in the European Drinking Water Directive 98/83/EG. The illumination period was 12 hours light followed by 12 hours darkness (12 hours light, from 6:00 to 18:00, and 12 hours darkness, from 18:00 to 6:00). […] The test substances (compounds) in the Tables 1 to 17 below were dosed and administered as described in the Table 18.
In the morning of day 7, 14, and 28, blood was taken from the retroorbital venous plexus from fasted anaesthetized animals. From each animal, 1 ml of blood was collected with EDTA as anticoagulant. The samples were centrifuged for generation of plasma. All plasma samples were covered with a N2 atmosphere and then stored at −80° C. until analysis.
For mass spectrometry-based metabolite profiling analyses plasma samples were extracted and a polar and a non-polar (lipid) fraction was obtained. For GC-MS analysis, the non-polar fraction was treated with methanol under acidic conditions to yield the fatty acid methyl esters. Both fractions were further derivatised with O-methyl-hydroxyamine hydrochloride and pyridine to convert Oxogroups to O-methyloximes and subsequently with a silylating agent before analysis. In LC-MS analysis, both fractions were reconstituted in appropriate solvent mixtures. HPLC was performed by gradient elution on reversed phase separation columns. Mass spectrometric detection which allows target and high sensitivity MRM (Multiple Reaction Monitoring) profiling in parallel to a full screen analysis was applied as described in WO2003073464.
Steroids and their metabolites were measured by online SPE-LC-MS (Solid phase extraction-LC-MS).
Following comprehensive analytical validation steps, the data for each analyte were normalized against data from pool samples. These samples were run in parallel through the whole process to account for process variability. The significance of treatment group values specific for sex, treatmentduration and metabolite was determined by comparing means of the treated groups to the means of the respective untreated control groups using WELCH-test and quantified with treatment ratios versus control and p-values.
The identification of the most important biomarkers per toxicity pattern was done by a ranking of the analytes in the tables below. Therefore the metabolic changes in reference treatments of a given pattern (shown in the table) were compared with changes of the same metabolite in other unrelated treatments. […] The maximum absolute value of the respective TVALUE was taken to indicate the most important metabolite for the pattern.

[2] = system: male rats; experiment: Plasma metabolite profiling (GC-MS, LC-MS, SPE-LC-MS) in male rats dosed once daily over 28 days (OECD 407); assay type: in vivo, rat; settings: high dose; for Cholesterol / Choline plasmalogen No 02 / Lignoceric acid (C24:0) / Sphingomyelin (d18:1, C16:0) / Sphingomyelin (d18:2, C16:0) / erythro-Sphingosine (d18:1): Table 14b
How it was run: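 Polar and lipid fractions profiled by GC-MS and LC-MS/MRM, steroids by online SPE-LC-MS; pool-normalized data compared to controls by Welch test as treatment ratios and p-values.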

[3] = female rats, plasma, high dose, day 7
[4] = female rats, plasma, high dose, day 14
[5] = female rats, plasma, high dose, day 28

O=C(c1ccc(OCCN2CCCCC2)cc1)c1c(-c2ccc(O)cc2)sc2cc(O)ccc12 [Raloxifene Hydrochloride]
Glycine, ratio versus control [1, 3]: 1.53 * | Lysine, ratio versus control [1, 3]: 0.8 * | Lysophosphatidylcholine (C17:0), ratio versus control [1, 3]: 0.74 * | Phosphatidylcholine (C18:0, C20:3), ratio versus control [1, 3]: 0.73 * | Phosphatidylcholine (C18:0, C22:6), ratio versus control [1, 3]: 0.87 * | Proline, ratio versus control [1, 3]: 1.16 * | TAG (C16:0, C18:2), ratio versus control [1, 3]: 2.05 * | TAG (C18:2, C18:3), ratio versus control [1, 3]: 1.84 * | TAG (DAG-Fragment), ratio versus control [1, 3]: 1.8 * | TAG No 059, ratio versus control [1, 3]: 1.61 * | Thyroxine (T4), ratio versus control [1, 3]: 1.36^ | Coenzyme Q9, ratio versus control [1, 4]: 1.29 * | Glycine, ratio versus control [1, 4]: 1.51 * | Lysine, ratio versus control [1, 4]: 0.61 * | Lysophosphatidylcholine (C17:0), ratio versus control [1, 4]: 0.72 * | Phosphatidylcholine (C16:0, C20:5), ratio versus control [1, 4]: 1.25 * | Phosphatidylcholine (C18:0, C20:3), ratio versus control [1, 4]: 0.86 * | Phosphatidylcholine (C18:0, C22:6), ratio versus control [1, 4]: 0.85 * | Proline, ratio versus control [1, 4]: 1.2 * | TAG (C16:0, C18:2), ratio versus control [1, 4]: 1.27 * | TAG (C18:2, C18:3), ratio versus control [1, 4]: 1.31 * | TAG (DAG-Fragment), ratio versus control [1, 4]: 1.4 * | TAG No 059, ratio versus control [1, 4]: 1.47 * | Thyroxine (T4), ratio versus control [1, 4]: 2.5 * | Coenzyme Q9, ratio versus control [1, 5]: 1.31 * | Glycine, ratio versus control [1, 5]: 1.4 * | Lysine, ratio versus control [1, 5]: 0.81 * | Lysophosphatidylcholine (C17:0), ratio versus control [1, 5]: 0.72 * | Phosphatidylcholine (C18:0, C20:3), ratio versus control [1, 5]: 0.81 * | Phosphatidylcholine (C18:0, C22:6), ratio versus control [1, 5]: 0.72 * | TAG (C16:0, C18:2), ratio versus control [1, 5]: 1.95 * | TAG (C18:2, C18:3), ratio versus control [1, 5]: 1.64 * | TAG (DAG-Fragment), ratio versus control [1, 5]: 1.76 * | TAG No 059, ratio versus control [1, 5]: 1.61 * | Thyroxine (T4), ratio versus control [1, 5]: 1.57 * | Coenzyme Q9, ratio versus control ([1]; rat, in vivo): 1.18 * | Proline, ratio versus control ([1]; rat, in vivo): 1.14 * | Cholesterol ([2]; m7): 0.44 | Choline plasmalogen No 02 ([2]; m7): 0.67 | Lignoceric acid (C24:0) ([2]; m7): 0.45 | Sphingomyelin (d18:1, C16:0) ([2]; m7): 0.52 | Sphingomyelin (d18:2, C16:0) ([2]; m7): 0.82 | erythro-Sphingosine (d18:1) ([2]; m7): 0.38 | Cholesterol ([2]; m14): 0.47 | Choline plasmalogen No 02 ([2]; m14): 0.69 | Lignoceric acid (C24:0) ([2]; m14): 0.39 | Sphingomyelin (d18:1, C16:0) ([2]; m14): 0.62 | Sphingomyelin (d18:2, C16:0) ([2]; m14): 0.78 | erythro-Sphingosine (d18:1) ([2]; m14): 0.49 | Cholesterol ([2]; m28): 0.63 | Choline plasmalogen No 02 ([2]; m28): 0.65 | Lignoceric acid (C24:0) ([2]; m28): 0.64 | Sphingomyelin (d18:1, C16:0) ([2]; m28): 0.65 | Sphingomyelin (d18:2, C16:0) ([2]; m28): 0.63 | erythro-Sphingosine (d18:1) ([2]; m28): 0.57

ACTH: adrenocorticotropin (ACTH) produced in the adenohypophysis of the pituitary gland (SYSMEHFRWGKPVGKKRRPVKVYPNGAEDESAEAFPLEF; Corticotropin; UniProt P01189 138-176, looked up)
3-Hydroxybutyrate, ratio versus control [1, 5]: 0.85 * | 5-Oxoproline, ratio versus control [1, 5]: 1.05 * | 18-Hydroxy-11-deoxycorticosterone, ratio versus control [1, 5]: 0.69 * | 21-Hydroxyprogesterone (11-Deoxycorticosterone), ratio versus control [1, 5]: 0.31 * | Biotin, ratio versus control [1, 5]: 0.7 * | Choline plasmalogen No 03, ratio versus control [1, 5]: 0.77 * | Citrate, ratio versus control [1, 5]: 0.92 * | Corticosterone, ratio versus control [1, 5]: 0.67 * | Ketoleucine, ratio versus control [1, 5]: 0.76 * | Lactate, ratio versus control [1, 5]: 0.68 * | Lysophosphatidylcholine (C18:2), ratio versus control [1, 5]: 1.06 * | Lysophosphatidylcholine (C20:4), ratio versus control [1, 5]: 1.11 * | Malate, ratio versus control [1, 5]: 0.76 * | Mannose, ratio versus control [1, 5]: 1.04 * | TAG No 059, ratio versus control [1, 5]: 1.62 * | Tyrosine, ratio versus control [1, 5]: 1.26 * | alpha-Tocopherol, ratio versus control [1, 5]: 0.95 * | 3,4-Dihydroxyphenylalanine (DOPA), ratio versus control ([2]; male rats, plasma, day 28): 0.86 * | 3-Hydroxybutyrate, ratio versus control ([2]; male rats, plasma, day 28): 0.65 * | 18-Hydroxy-11-deoxycorticosterone, ratio versus control ([2]; male rats, plasma, day 28): 0.43 * | 21-Hydroxyprogesterone (11-Deoxycorticosterone), ratio versus control ([2]; male rats, plasma, day 28): 0.18 * | Biotin, ratio versus control ([2]; male rats, plasma, day 28): 0.64 * | Citrate, ratio versus control ([2]; male rats, plasma, day 28): 0.82 * | Corticosterone, ratio versus control ([2]; male rats, plasma, day 28): 0.42 * | Ketoleucine, ratio versus control ([2]; male rats, plasma, day 28): 0.81 * | Lysophosphatidylethanolamine (C22:5), ratio versus control ([2]; male rats, plasma, day 28): 1.22 * | Phosphatidylcholine No 04, ratio versus control ([2]; male rats, plasma, day 28): 0.8 * | Progesterone, ratio versus control ([2]; male rats, plasma, day 28): 0.14 * | Urea, ratio versus control ([2]; male rats, plasma, day 28): 1.28 *
